Assay results: patent publication US20250332173A1, “COMPOUNDS AND METHODS FOR MODULATING NUCLEIC ACID SPLICING” (REMIX THERAPEUTICS INC., priority 2021, published 2025)
Like-named read-outs stand apart in the source and are kept apart here.

Experiments:
HTT = test: HiBiT protein abundance assay, HTT HiBiT K562 cell line; format: cell-based, human; details: 24 hours, top dose 10 μM
Summary of the method: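 Endogenous targets in K562 knock-in lines carried a HiBiT tag and were treated for 24 h at 37 °C with 10-point 3-fold dilutions (top 10 μM final, DMSO ≤0.25%). Abundance was read as lytic Nano-Glo HiBiT luminescence. IC50 came from a four-parameter logistic fit of normalized response.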

Target C = test: RT-qPCR splicing assay panel, Target C canonical junction (CJ) mRNA; format: cell-based, human; details: Homo sapiens
Summary of the method: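 Cells are plated (A673 allowed 24 h to adhere), dosed with an 11-point 3-fold series topping at 10 uM final, and incubated 24 h at 37 °C. Lysis is followed by cDNA synthesis and qPCR of the CJ transcript, normalized to a housekeeping gene.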

[1] = system: K562 (human chronic myelogenous leukemia) cells; test: Cell Titer Glo 2.0 cell viability assay; format: cell-based; details: K562 cells, 72 hours, Cell Titer Glo 2.0, read-out: K562 GI50
[2] = HiBiT K562 cell line, read-out: Effect on protein abundance, HTT (IC50 category)
[3] = canonical junction qPCR panel, Table 5, read-out: Target C (decrease in CJ mRNA levels, IC50)
[4] = Table 5 panel, canonical junction qPCR, compound concentration having 50% response in CJ decrease, read-out: Target C IC50 (decrease in CJ mRNA levels)
[5] = HiBiT lytic detection, modified K562 cells, read-out: Effect on protein abundance, HTT (IC50)

| IC50 (HTT; [2]) | IC50 (Target C; [3]) | GI50 ([1]; Homo sapiens, K562, 72 h) | IC50 (Target C; [4]) | IC50 (HTT; [5]) | GI50 [1] | Compound |
| --- | --- | --- | --- | --- | --- | --- |
| 100 to 1000 nM | – | 100 to 1000 nM | 100 to 1000 nM | – | – | Cn1cc2cc(-c3ccc4c(=O)n(C5CCNCC5)cnc4c3)cc(F)c2n1 [Compound 206] |
| 100 to 1000 nM | – | 100 to 1000 nM | 100 to 1000 nM | – | – | Cc1cn2cc(-c3ccc4c(=O)n(C5CCNC6(CC6)C5)cnc4c3)cc(F)c2n1 (stereo not drawn) [Compound 236] |
| – | > 10000 nM | 1000 to 10000 nM | – | > 10000 nM | – | Cc1cc(-c2nc3cc(N4CCNCC4)ccc3c(=O)[nH]2)cc2cn(C)nc12 [Compound 2213] |
| – | 100 to 1000 nM | < 100 nM | – | 100 to 1000 nM | – | Cn1cc2cc(-c3ncc4c(=O)n(C56CCC(N)(CC5)C6)ccc4n3)c(O)c(F)c2n1 [Compound 1468] |
| 100 to 1000 nM | – | 100 to 1000 nM | 1000 to 10000 nM | – | – | Cc1cn2cc(-c3ccc4c(c3)CCN(C3CCNCC3)C4=O)cc(Cl)c2n1 [Compound 216, 6-[8-chloro-2-methylimidazo[1,2-a]pyridin-6-yl]-2-(piperidin-4-yl)-3,4-dihydroisoquinolin-1-one] |
| – | > 10000 nM | > 10000 nM | – | > 10000 nM | – | Cn1cc2cc(-n3cnc4ccc(N5CCNCC5)cc4c3=O)cc(F)c2n1 [Compound 2196] |
| 1000 to 10000 nM | – | 1000 to 10000 nM | 1000 to 10000 nM | – | – | Cc1cn2cc(-c3ccc4c(c3)CCN(C3CCNCC3)C4=O)c(C)cc2n1 [Compound 218, 6-[2,7-dimethylimidazo[1,2-a]pyridin-6-yl]-2-(piperidin-4-yl)-3,4-dihydroisoquinolin-1-one] |
| – | 100 to 1000 nM | 100 to 1000 nM | – | 100 to 1000 nM | – | Cc1c(O)c(-c2nc(C)c3c(=O)n([C@@H]4CCNC5(CC5)C4)ccc3n2)cc2cn(C)nc12 [Compound 1515, (R)-2-(6-hydroxy-2,7-dimethyl-2H-indazol-5-yl)-4-methyl-6-(4-azaspiro[2.5]octan-7-yl)pyrido[4,3-d]pyrimidin-5(6H)-one] |
| 1000 to 10000 nM | – | 1000 to 10000 nM | > 10000 nM | – | – | Cc1cn2nc(-c3ccc4c(c3)CCN(C3CCNCC3)C4=O)cc2c(C)n1 [Compound 223, 6-[4,6-dimethylpyrazolo[1,5-a]pyrazin-2-yl]-2-(piperidin-4-yl)-3,4-dihydroisoquinolin-1-one] |
| 1000 to 10000 nM | – | 1000 to 10000 nM | > 10000 nM | – | – | CN1CCC(n2cnc3cc(-c4ccc5nn(C)cc5c4)ccc3c2=O)CC1 [Compound 208] |
| – | 100 to 1000 nM | 100 to 1000 nM | – | 1000 to 10000 nM | – | Cc1cn2cc(-c3ncc4c(=O)n(C56CCC(N)(CC5)C6)ccc4n3)cc(F)c2n1 [Compound 1469, 6-(4-aminonorbornane-1-yl)-2-(8-fluoro-2-methyl-imidazo[1,2-a]pyridin-6-yl)pyrido[4,3-d]pyrimidin-5-one] |
| – | 100 to 1000 nM | 100 to 1000 nM | – | < 100 nM | – | COc1cc(-c2ccc3c(=O)n([C@H]4CCN[C@@H](C)C4)ccc3n2)nn2cc(C)nc12 [Compound 1519, 2-(8-methoxy-2-methyl-imidazo[1,2-b]pyridazin-6-yl)-6-[(2S,4S)-2-methyl-4-piperidyl]-1,6-naphthyridin-5-one] |
| – | 100 to 1000 nM | 100 to 1000 nM | – | 100 to 1000 nM | – | Cc1cn2nc(-c3ccc4c(=O)n(C5CC(C)N[C@H](C)C5)ncc4n3)cc(C)c2n1 (stereo in doubt) [Compound 1536, 2-(2,8-dimethylimidazo[1,2-b]pyridazin-6-yl)-6-[(2S,6R)-2,6-dimethyl-4-piperidyl]pyrido[2,3-d]pyridazin-5-one] |
| – | > 10000 nM | > 10000 nM | – | > 10000 nM | – | Cc1cc(-c2ccc3c(=O)[nH]c(N4CCNCC4)nc3c2)cc2cn(C)nc12 [Compound 2211] |
| 1000 to 10000 nM | – | 1000 to 10000 nM | > 10000 nM | – | – | Cn1cc2cc(-c3ccc4c(c3)CCN(C3CCNCC3)C4=O)cc(F)c2n1 [Compound 225] |
| – | 1000 to 10000 nM | 1000 to 10000 nM | – | 100 to 1000 nM | – | Cc1cn2nc(-c3ccc4c(=O)n(C5CCNC6(CCC6)C5)ncc4n3)cc(C)c2n1 (stereo not drawn) [Compound 1553] |
| > 10000 nM | – | > 10000 nM | > 10000 nM | – | – | Cc1cn2cc(-n3cnc4cc(N5CCN(C)CC5)ccc4c3=O)cc(F)c2n1 [Compound 229] |
| 100 to 1000 nM | – | 100 to 1000 nM | < 100 nM | – | – | Cc1cn2cc(-c3cc(F)c4c(=O)n(C5CCNCC5)cnc4c3)cc(F)c2n1 [Compound 230] |
| – | 1000 to 10000 nM | > 10000 nM | – | > 10000 nM | – | Cn1cc2ccc(-n3cnc4ccc(NC5CCNCC5)cc4c3=O)cc2n1 [Compound 2164] |
| – | 100 to 1000 nM | 100 to 1000 nM | – | 100 to 1000 nM | – | Cc1cn2nc(-c3ccc4c(=O)n([C@@H]5CCN(C)[C@H](C)C5)ncc4n3)cc(C)c2n1 [Compound 1527] |
| > 10000 nM | – | 1000 to 10000 nM | 1000 to 10000 nM | – | – | CN1CCC(n2cnc3cc(-c4cc(F)c5nn(C)cc5c4)ccc3c2=O)CC1 [Compound 209] |
| – | 100 to 1000 nM | 100 to 1000 nM | – | 100 to 1000 nM | – | Cc1cn2nc(-c3ccc4c(=O)n([C@H]5CCN(C)C6(CC6)C5)ncc4n3)cc(C)c2n1 [Compound 1533] |
| – | 100 to 1000 nM | 100 to 1000 nM | – | 100 to 1000 nM | – | CCN1CC[C@H](n2ncc3nc(-c4cc(C)c5nc(C)cn5n4)ccc3c2=O)CC12CC2 [Compound 1531] |
| 100 to 1000 nM | – | 1000 to 10000 nM | 1000 to 10000 nM | – | – | Cc1nc2c(F)cc(-c3ccc4c(c3)CCN(C3CCNCC3)C4=O)cc2o1 [Compound 215] |

Second part, the compound before the results:

| Compound | IC50 (HTT; [2]) | IC50 (Target C; [3]) | GI50 ([1]; Homo sapiens, K562, 72 h) | IC50 (Target C; [4]) | IC50 (HTT; [5]) | GI50 [1] |
| --- | --- | --- | --- | --- | --- | --- |
| Cc1cn2nc(-c3ccc4c(=O)n(C5CCN(CCO)C6(CC6)C5)ncc4n3)cc(C)c2n1 (stereo not drawn) [Compound 1541, 2-(2,8-dimethylimidazo[1,2-b]pyridazin-6-yl)-6-[4-(2-hydroxyethyl)-4-azaspiro[2.5]octan-7-yl]pyrido-[2,3-d]pyridazin-5-one] | < 100 nM | 100 to 1000 nM | 1000 to 10000 nM | – | – | – |
| O=C1c2ccc(-c3cn[nH]c3)cc2CCN1C1CCNCC1 [Compound 220, 2-(piperidin-4-yl)-6-(1H-pyrazol-4-yl)-3,4-dihydroisoquinolin-1-one] | > 10000 nM | – | > 10000 nM | > 10000 nM | – | – |
| Cc1cn2cc(-c3ccc4c(=O)n(C5CCNC(C)(C)C5)cnc4c3)cc(F)c2n1 (stereo not drawn) [Compound 237] | 100 to 1000 nM | – | 100 to 1000 nM | 1000 to 10000 nM | – | – |
| Cc1cc(-c2ccc3ncn(C4CCNCC4)c(=O)c3c2)cc2cn(C)nc12 [Compound 2169] | – | > 10000 nM | > 10000 nM | – | > 10000 nM | – |
| Cc1cn2cc(-n3cnc4ccc(N5CCN(C)CC5)cc4c3=O)cc(F)c2n1 [Compound 2197] | – | 1000 to 10000 nM | 1000 to 10000 nM | – | 1000 to 10000 nM | – |
| Cc1c(O)c(-c2ncc3c(=O)n([C@@H]4CC[C@@H](N)C4)ccc3n2)cc2cn(C)nc12 [Compound 1476, 6-[(1R,3R)-3-aminocyclopentyl]-2-(6-hydroxy-2,7-dimethyl-indazol-5-yl)pyrido[4,3-d]pyrimidin-5-one] | – | 1000 to 10000 nM | 100 to 1000 nM | – | 100 to 1000 nM | – |
| CN1CCC(N(C)c2ccc3ncn(-c4cc(F)c5nn(C)cc5c4)c(=O)c3c2)CC1 [Compound 2199] | – | > 10000 nM | > 10000 nM | – | > 10000 nM | – |
| Cc1c(O)c(-c2ccc3c(=O)n(C4CCNC4)cc(C)c3n2)cc2cn(C)nc12 (stereo not drawn) [Compound 1467] | – | > 10000 nM | 100 to 1000 nM | – | 100 to 1000 nM | – |
| Cc1c(O)c(-c2ncc3c(=O)n([C@@H]4CCN[C@@H](C)C4)ccc3n2)cc2cn(C)nc12 [Compound 1462, 2-(6-hydroxy-2,7-dimethyl-indazol-5-yl)-6-[(2S,4R)-2-methyl-4-piperidyl]pyrido[4,3-d]pyrimidin-5-one] | < 100 nM | 100 to 1000 nM | < 100 nM | – | – | – |
| Cc1cn2cc(-c3ccc4c(=O)n(C5CCNCC5)cnc4c3F)cc(F)c2n1 [Compound 210] | 1000 to 10000 nM | – | 100 to 1000 nM | 1000 to 10000 nM | – | – |
| Cc1c(O)c(-c2ncc3c(=O)n([C@@H]4CC[C@H](N)C4)ccc3n2)cc2cn(C)nc12 [Compound 1477] | – | 100 to 1000 nM | – | – | < 100 nM | < 100 nM |
| Cc1cc(-c2cc(F)c3c(=O)n(C4CCNCC4)cnc3c2)cc2cn(C)nc12 [Compound 232] | < 100 nM | – | 100 to 1000 nM | 100 to 1000 nM | – | – |
| Cn1cc2cc(-c3ncc4c(=O)n(C56CCC(N)(CC5)C6)ccc4n3)c(O)cc2n1 [Compound 1470] | – | 1000 to 10000 nM | 100 to 1000 nM | – | 1000 to 10000 nM | – |
| Cc1cn2nc(-n3cnc4ccc(N5CCNCC5)cc4c3=O)cc(C)c2n1 [Compound 2201] | – | > 10000 nM | > 10000 nM | – | > 10000 nM | – |
| Cc1cn2nc(-n3cnc4ccc(N5CCN(C)CC5)cc4c3=O)cc(C)c2n1 [Compound 2202] | – | 1000 to 10000 nM | 1000 to 10000 nM | – | 1000 to 10000 nM | – |
| Cc1cc(-c2cc(F)c3c(=O)n(C4CCN(C)CC4)cnc3c2)cc2cn(C)nc12 [Compound 233] | 100 to 1000 nM | – | 100 to 1000 nM | 1000 to 10000 nM | – | – |
| Cc1cn2nc(-n3cnc4cc(N5CCNCC5)ccc4c3=O)cc(C)c2n1 [Compound 241] | 1000 to 10000 nM | – | 1000 to 10000 nM | 1000 to 10000 nM | – | – |
